Data set [1] relates to nitrogen monoxide (NO) production due to IL-1β. As to the kind of experiment: NO production inhibitory action in IL-1β-stimulated rat liver cells (Griess method). In kind it is cell-based. The note with it: IL-1β 1 nM, 8 hours; for IC50: nitrite by Griess method, read-out: IC50 value (drug concentration at NO production of 50%). On the procedure: Liver cells were isolated from male Wistar rats (200 to 250 g, Charles River) by a collagenase perfusion method (collagenase: Wako Pure Chemicals). The isolated liver cells were suspended in a medium at 6×10^5 cells/mL, seeded in 35 mm plastic dishes (Falcon Plastic) (2 mL/dish), and cultured in an incubator with 5% CO2 at 37° C. Williams' Medium E (WE) containing 10% newborn calf serum, HEPES (5 mM), penicillin (100 U/mL), streptomycin (0.1 mg/mL), dexamethasone (10 nM), and insulin (10 nM) was used as the medium. After 5 hours, the medium was replaced with fresh WE free of any serum and hormone, and the cells were cultured overnight until before use of the cells for an experiment.
On day 1 after the start of the culture, cells were subjected to replacement with fresh WE free of any serum and hormone, and recombinant rat IL-1β (purity of 97% or more) (PeproTech, Rocky Hill, N.J., USA), and Pa5 extracted with methanol in Example 1 or negletein in the comparative example were added to the medium. In each medium, the concentration of IL-1β was 1 nM, the concentrations of Pa5 were 5, 10, and 20 μM, and the concentrations of negletein were 10, 20, and 40 μM (FIG. 1). The amount of NO in each medium was measured 8 hours after the addition of IL-1β, and Pa5 or negletein by a Griess method (Green L C et al, Anal Biochem 1982; 126: 131-138). More specifically, the amount of nitrite (stable metabolite of NO) in each medium was measured.
Liver cells originated from rats were cultured in like manner with Example 4. On day 1 after the start of the culture, the cells were subjected to replacement with fresh WE free of any serum and hormone, and recombinant rat IL-1β (similar to that in Example 4) and Pa9 extracted with methanol in Example 3 were added to the medium. In each medium, the concentration of IL-1β was 1 nM, and the concentrations of Pa9 were 10 μM, 50 μM, and 100 μM (FIG. 5). The amount of NO in each medium was measured 8 hours after the addition of IL-1β and Pa9 in like manner with Example 4.

Data set [2] relates to various inflammatory cytokines/chemokines. In words: cytokine/chemokine arrays (in vitro), overall. In kind it is cell-based. The note with it: rat liver cells, IL-1β 1 nM, Pa5 20 μM, 3 hours. On the procedure:
In like manner with Example 4, liver cells were isolated from male Wistar rats by a collagenase perfusion method. The isolated liver cells were suspended in a medium (similar to that in Example 4) at 1.2×10^6 cells/mL, seeded in 35 mm plastic dishes (similar to those in Example 4) (1 mL/dish), and cultured in an incubator with 5% CO2 at 37° C. After 5 hours, the medium was replaced with fresh WE free of any serum and hormone, and the cells were cultured overnight until before use of the cells for an experiment. […]
The productions of the various inflammatory cytokines/chemokines were measured according to an accompanying protocol using Rat Cytokine Antibody Array (R&D Systems) (http://www.rndsystems.com/product_detail_objectname_ratcytokinearray.aspx) capable of detecting 29 kinds of cytokines/chemokines in Proteome Profiler® Antibody Array. […]
In the above-described method, the 29 kinds of the cytokines/chemokines can be detected at once, and chemiluminescence on the filter of Proteome Profiler Antibody Array increases in proportion to the amount of each cytokine/chemokine. Thus, the chemiluminescence on the filter of Proteome Profiler Antibody Array was detected with LAS3000mini (GE Healthcare), subjected to densitometry analysis, and converted into a numeric value. […]

Data set [3] deals with VEGF (VEGF-A/Vasculotropin). As to the kind of experiment: cytokine/chemokine array (in vitro), VEGF. The format is cell-based, rat. The settings on record: (+) IL-1β 1 nM, Pa5 20 μM. On the procedure: (§1) In like manner with Example 4, liver cells were isolated from male Wistar rats by a collagenase perfusion method. The isolated liver cells were suspended in a medium (similar to that in Example 4) at 1.2×10^6 cells/mL, seeded in 35 mm plastic dishes (similar to those in Example 4) (1 mL/dish), and cultured in an incubator with 5% CO2 at 37° C. After 5 hours, the medium was replaced with fresh WE free of any serum and hormone, and the cells were cultured overnight until before use of the cells for an experiment.
(§2) On day 1 after the start of the culture, cells were subjected to replacement with fresh WE free of any serum and hormone, and IL-1β (similar to that in Example 4), and Pa5 extracted with methanol in Example 1 or Pa5′ extracted with methanol in Example 2 were added to the medium. The concentrations of IL-1β, Pa5, and Pa5′ in each medium were 1 nM, 20 μM, and 100 μM, respectively (Table 1). Then, the cells were cultured at 37° C., and the medium was collected 3 hours after the start of the culture. The collected medium was centrifuged for 1 minute at 5000 rpm to remove cellular debris, and the supernatant was used in an assay. The supernatant was preserved at −80° C. until performing the assay.
(§3) The productions of the various inflammatory cytokines/chemokines were measured according to an accompanying protocol using Rat Cytokine Antibody Array (R&D Systems) (http://www.rndsystems.com/product_detail_objectname_ratcytokinearray.aspx) capable of detecting 29 kinds of cytokines/chemokines in Proteome Profiler® Antibody Array. In the measurement, 1 mL of the supernatant of the medium obtained as described above was used.
(§4) In the above-described method, the 29 kinds of the cytokines/chemokines can be detected at once, and chemiluminescence on the filter of Proteome Profiler Antibody Array increases in proportion to the amount of each cytokine/chemokine. Thus, the chemiluminescence on the filter of Proteome Profiler Antibody Array was detected with LAS3000mini (GE Healthcare), subjected to densitometry analysis, and converted into a numeric value. The densitometry analysis was carried out with reference to http://www.hm6.aitai.ne.jp/˜maxcat/imageJ/technique.html#gels (the heading of “Analyzing Electrophoretic Gels”) using ImageJ software.

In the next data set the test system is MIG (CXCL9). In words: cytokine/chemokine array (in vitro), MIG. The note with it: (+) IL-1β 1 nM, Pa5 20 μM. The format is cell-based, rat. The protocol:
as §1, §2, §3, §4

For a further data set, the system named is sICAM-1 (CD54). As to the kind of experiment: cytokine/chemokine array (in vitro), sICAM-1. In kind it is cell-based, rat. The settings on record: (+) IL-1β 1 nM, Pa5 20 μM. The protocol: as §1, §2, §3, §4
A further data set deals with IL-17. In words: cytokine/chemokine array (in vitro), IL-17. The format is cell-based, rat. The note with it: (+) IL-1β 1 nM, Pa5 20 μM. The protocol:
as §1, §2, §3, §4

The subject of another data set is Fractalkine (CX3CL1). In words: cytokine/chemokine array (in vitro), Fractalkine. The format is cell-based, rat. The note with it: (+) IL-1β 1 nM, Pa5 20 μM. The protocol: as §1, §2, §3, §4
The subject of the next data set is CINC-2α/β. As to the kind of experiment: cytokine/chemokine array (in vitro), CINC-2α/β. The format is cell-based, rat. The settings on record: (+) IL-1β 1 nM, Pa5 20 μM. The protocol: as §1, §2, §3, §4
The next data set concerns rat liver cells. As to the kind of experiment: LDH activity of medium (cytotoxicity). The format is cell-based. The settings on record: IL-1β 1 nM plus Pa5, 8 hours. On the procedure:
Further, lactate dehydrogenase (LDH) activity was measured to investigate the cytotoxicity of Pa5. The lactate dehydrogenase (LDH) activity of each medium was measured using LDH Cytotoxicity Detection Kits (Takara Bio Inc.). LDH is an enzyme existing in a cell, and therefore migrates into a medium due to cell damage. Each medium was collected 8 hours after the addition of IL-1β, and Pa5 or negletein, and was used for measuring the activity. Actually, each sample (50 μl of medium) and Solution C (50 μl) in the kit were mixed and left standing at room temperature for 30 minutes, 1 M hydrochloric acid (25 μl) was added to stop the reaction, and the absorbance of the resultant at 490 nm was measured and compared with a calibration curve using LDH of known concentration to determine the LDH activity. The LDH activity of the whole cells on one dish (that is, whole-cell extract) was considered to be a positive control (positive control in FIG. 3), and was regarded as 100%. The medium was removed from each dish containing the liver cells, the cells were washed three times with phosphate buffered saline (PBS), then ultrasonically broken, and centrifuged at 10000×g for 3 minutes to then obtain a supernatant, which was used as a whole-cell extract, and the LDH activity of the cells was measured.

The subject of a further data set is CINC-3. In words: cytokine/chemokine array (in vitro), CINC-3. In kind it is cell-based, rat. The settings on record: (+) IL-1β 1 nM, Pa5 20 μM. On the procedure:
as §1, §2, §3, §4

The test system of a further data set is Thymus Chemokine (CXCL7). As to the kind of experiment: cytokine/chemokine array (in vitro), Thymus Chemokine. The format is cell-based, rat. The settings on record: (+) IL-1β 1 nM, Pa5 20 μM. The protocol:
as §1, §2, §3, §4

`COc1cc2oc(-c3ccccc3)cc(=O)c2c(O)c1O` [negletein, reference compound]: in data set [1], the IC50 came out at 16.3 µM. In data set [1] (negletein 10, 20, 40 μM), the “production of NO due to IL-1β” value is given as “dose-dependently inhibited”.
As for `COc1cc2c(c(O)c1OC)OC(c1ccccc1)CC2=O` (stereo not shown) [Pa5, 8-hydroxy-6,7-dimethoxyflavanone], the “induction of various cytokines/chemokines” value in data set [2] is listed as “strongly inhibit”. Besides, in data set [1] (10 μM), the “degree of NO production inhibitory action, comparison at the same addition concentration” value is on record as “higher than that of negletein”. The IC50 in data set [1] was found to be 9 µM. Also, the “production of NO due to IL-1β” value in data set [1] (Pa5 5, 10, 20 μM) is “dose-dependently inhibited”. Besides, in [3] (3 hours, (+) alone = 100.0), the “VEGF (VEGF-A/Vasculotropin) (%)” value is 29.0%. Besides, in data set [3] (medium at 3 hours), the “VEGF (VEGF-A/Vasculotropin) chemiluminescence densitometry, Average” value came out at 236.8; the “VEGF (VEGF-A/Vasculotropin) chemiluminescence densitometry, first value” turned out to be 241.4; the “VEGF (VEGF-A/Vasculotropin) chemiluminescence densitometry, second value” amounted to 232.3. Also, the “MIG (CXCL9) (%)” value in the data set with MIG (CXCL9) (3 hours, (+) alone = 100.0) came out at 0.0%. Also, in the data set on MIG (CXCL9) (medium at 3 hours), the “MIG (CXCL9) chemiluminescence densitometry, Average” value is on record as 0.0; the “MIG (CXCL9) chemiluminescence densitometry, first value” is given as 0.0; the “MIG (CXCL9) chemiluminescence densitometry, second value” came to 0.0. In the data set on sICAM-1 (CD54) (3 hours, (+) alone = 100.0), the “sICAM-1 (CD54) (%)” value is 0.0%. Also, in the data set on sICAM-1 (CD54) (medium at 3 hours), the “sICAM-1 (CD54) chemiluminescence densitometry, Average” value amounted to 0.0; the “sICAM-1 (CD54) chemiluminescence densitometry, first value” is given as 0.0; the “sICAM-1 (CD54) chemiluminescence densitometry, second value” is given as 0.0. Besides, in the data set with IL-17 (3 hours, (+) alone = 100.0), the “IL-17 (%)” value came out at 0.0%. In addition, in the data set with IL-17 (medium at 3 hours), the “IL-17 chemiluminescence densitometry, Average” value is 0.0; the “IL-17 chemiluminescence densitometry, first value” is on record as 0.0; the “IL-17 chemiluminescence densitometry, second value” came out at 0.0. The “Fractakine (CX3CL1) (%)” value in the data set on Fractalkine (CX3CL1) (3 hours, (+) alone = 100.0) came out at 0.0%. In the data set with Fractalkine (CX3CL1) (medium at 3 hours), the “Fractakine (CX3CL1) chemiluminescence densitometry, Average” value is given as 0.0; the “Fractakine (CX3CL1) chemiluminescence densitometry, first value” amounted to 0.0; the “Fractakine (CX3CL1) chemiluminescence densitometry, second value” came to 0.0. Also, the “CINC-2α/β (%)” value in the data set on CINC-2α/β (3 hours, (+) alone = 100.0) was 2.8%. In the data set with CINC-2α/β (medium at 3 hours), the “CINC-2α/β chemiluminescence densitometry, Average” value is on record as 170.2; the “CINC-2α/β chemiluminescence densitometry, first value” was found to be 209.7; the “CINC-2α/β chemiluminescence densitometry, second value” stood at 130.6. Also, in the data set on rat liver cells, the “LDH activity of medium” value was “equivalent to that in the case of adding IL-1β” and the “cytotoxicity (from LDH activity)” value was “no cytotoxicity”. For the same molecule, the “CINC-3 (%)” value with CINC-3 (3 hours, (+) alone = 100.0) is reported as 0.6%. In the data set on CINC-3 (medium at 3 hours), the “CINC-3 chemiluminescence densitometry, Average” value is listed as 17.1; the “CINC-3 chemiluminescence densitometry, first value” was found to be 16.1; the “CINC-3 chemiluminescence densitometry, second value” is listed as 18.1. Also, in the data set with Thymus Chemokine (CXCL7) (3 hours, (+) alone = 100.0), the “Thymus Chemokine (CXCL7) (%)” value was 0.0%. Further, in the data set on Thymus Chemokine (CXCL7) (medium at 3 hours), the “Thymus Chemokine (CXCL7) chemiluminescence densitometry, Average” value is given as 0.0; the “Thymus Chemokine (CXCL7) chemiluminescence densitometry, first value” came out at 0.0; the “Thymus Chemokine (CXCL7) chemiluminescence densitometry, second value” is reported as 0.0.
